In the Deep4Chem optical property database:

Experiment: photoluminescence quantum yield (fraction); solvent given as SMILES

Question: What does the source list for `N#Cc1cc2nc3c(nc2cc1C#N)C1c2ccc(N(c4ccccc4)c4ccccc4)cc2C3c2ccc(N(c3ccccc3)c3ccccc3)cc21`?
Answer: photoluminescence quantum yield (in C1CCCCC1): 0.44; photoluminescence quantum yield (in CC#N): 0.01; photoluminescence quantum yield (in Cc1ccccc1): 0.35; photoluminescence quantum yield (in ClCCl): 0.02

Question: For `C#CCOc1ccc(/C=C/C2=[N+]3C(=C(c4ccc(N(C)C)cc4)c4c(C)cc(C)n4[B-]3(F)F)C(C)=C2)cc1`, which photoluminescence quantum yield (in CO) is on record?
Answer: 0.66

Question: Which photoluminescence quantum yield (in ClCCl) does the source give for `C(#Cc1nc(C#Cc2cccs2)c(C#Cc2cccs2)c(C#Cc2cccs2)c1C#Cc1cccs1)c1cccs1` here?
Answer: 0.48

Question: Which results are given for `CC1(C)c2ccccc2N(c2ccc3c(ccc4nc5ccc6cc(N7c8ccccc8C(C)(C)c8ccccc87)ccc6c5nc43)c2)c2ccccc21`?
Answer: photoluminescence quantum yield (in C1CCCCC1): 0.16; photoluminescence quantum yield (in C1CCOC1): 0.07; photoluminescence quantum yield (in Cc1ccccc1): 0.11; photoluminescence quantum yield (in ClCCl): 0.05

Question: For `Cc1cc2c(o1)=CC1=C(C(F)(F)F)c3cc4oc(C)cc4n3[B-](F)(F)[N+]=21`, which photoluminescence quantum yield (in C1CCOC1) is on record?
Answer: 0.92

Question: And the photoluminescence quantum yield (in CC#N)?
Answer: 0.84

Question: And the photoluminescence quantum yield (in CCO)?
Answer: 0.87

Question: And the photoluminescence quantum yield (in CO)?
Answer: 0.7

Question: And the photoluminescence quantum yield (in Cc1ccccc1)?
Answer: 0.97

Question: And the photoluminescence quantum yield (in ClC(Cl)Cl)?
Answer: 0.98

Question: With `CC/[NH+]=c1\cc2oc3cc(NCCNC(=O)C(NC(=O)OC(C)(C)C)C(C)C)c4ccccc4c3nc-2cc1C` (centres undefined) as the compound, how does the photoluminescence quantum yield (in CCO) read?
Answer: 0.35

Question: What about the photoluminescence quantum yield (in O) of the same compound?
Answer: 0.48

Question: Which photoluminescence quantum yield (in C1CCOC1) does the source give for `CC1=CC(C)=[N+]2C1=C(c1ccc(N3CCCCC3)cc1)c1c(C)cc(C)n1[B-]2(F)F` here?
Answer: 0.008

Question: And the photoluminescence quantum yield (in CC#N)?
Answer: 0.005

Question: What about the photoluminescence quantum yield (in CC(=O)C(C)(C)C) of the same compound?
Answer: 0.024

Question: What about the photoluminescence quantum yield (in CC(C)=O) of the same compound?
Answer: 0.002

Question: What about the photoluminescence quantum yield (in CCCCCC) of the same compound?
Answer: 0.384

Question: What about the photoluminescence quantum yield (in CCOC(C)=O) of the same compound?
Answer: 0.006

Question: With `CCCC1(CCC)c2cc(-c3ccc(C(C)(C)CC)cc3)ccc2-c2ccc(-c3ccc(C(C)(C)CC)cc3)cc21` as the compound, how does the photoluminescence quantum yield (in C1CCCCC1) read?
Answer: 0.92

Question: For `CCCCN1C(=O)c2cc(Oc3ccc(C(C)(C)C)cc3)c3c4c(Oc5ccc(C(C)(C)C)cc5)c(Oc5ccc(C(C)(C)C)cc5)c5c6c(cc(Oc7ccc(C(C)(C)C)cc7)c(c7c(Oc8ccc(C(C)(C)C)cc8)c(Oc8ccc(C(C)(C)C)cc8)c(c2c37)C1=O)c64)C(=O)N(CCCC)C5=O`, which photoluminescence quantum yield (in ClC(Cl)Cl) is on record?
Answer: 0.75

Question: What does the source list for `CN(C)c1ccc2cc(C3=[O+][B-](F)(F)OC(c4ccc(C#N)cc4)=C3)ccc2c1`?
Answer: photoluminescence quantum yield (in C1CCOC1): 0.56; photoluminescence quantum yield (in CC#N): 0.007; photoluminescence quantum yield (in CC(C)=O): 0.18; photoluminescence quantum yield (in CS(C)=O): 0.007; photoluminescence quantum yield (in Cc1ccccc1): 0.62; photoluminescence quantum yield (in ClC(Cl)Cl): 0.94; photoluminescence quantum yield (in ClCCl): 0.87

Question: For `N#Cc1cccc(-c2nc(-c3ccccc3)c(-c3ccccc3)[nH]2)c1`, which photoluminescence quantum yield (in CO) is on record?
Answer: 0.2

Question: For `CN(C)c1ccc(/C=C/c2nc3ccccc3s2)cc1`, which photoluminescence quantum yield (in C1CCCCC1) is on record?
Answer: 0.001

Question: What about the photoluminescence quantum yield (in C1CCOC1) of the same compound?
Answer: 0.003

Question: What about the photoluminescence quantum yield (in C1COCCO1) of the same compound?
Answer: 0.0022

Question: And the photoluminescence quantum yield (in CC#N)?
Answer: 0.0066

Question: What about the photoluminescence quantum yield (in CC(C)O) of the same compound?
Answer: 0.0048

Question: What about the photoluminescence quantum yield (in CCCCCC) of the same compound?
Answer: 0.0018

Question: And the photoluminescence quantum yield (in CCCCCCC)?
Answer: 0.0014

Question: And the photoluminescence quantum yield (in CCO)?
Answer: 0.0045

Question: What about the photoluminescence quantum yield (in CCOC(C)=O) of the same compound?
Answer: 0.0053

Question: And the photoluminescence quantum yield (in CCOCC)?
Answer: 0.002

Question: And the photoluminescence quantum yield (in CN(C)C=O)?
Answer: 0.007

Question: What about the photoluminescence quantum yield (in CO) of the same compound?
Answer: 0.003

Question: What about the photoluminescence quantum yield (in CS(C)=O) of the same compound?
Answer: 0.0078

Question: And the photoluminescence quantum yield (in O)?
Answer: 0.0012

Question: What about the photoluminescence quantum yield (in OCC(O)CO) of the same compound?
Answer: 0.115

Question: For `C=Cc1cc2ccc(OC)cc2oc1=O`, which photoluminescence quantum yield (in CC#N) is on record?
Answer: 0.99

Question: Which photoluminescence quantum yield (in ClCCl) does the source give for `C(=C\c1ccncn1)/c1ccc(N(c2ccccc2)c2ccc(/C=C/c3ccncn3)cc2)cc1` here?
Answer: 0.73

Question: What does the source list for `O=c1c2cc(F)ccc2nc2n1[B-](F)(F)[n+]1ccccc1-2`?
Answer: photoluminescence quantum yield (in CC#N): 0.86; photoluminescence quantum yield (in ClCCl): 0.99

Question: Which photoluminescence quantum yield (in C1COCCO1) does the source give for `CC(C)CN1C(=O)/C(=C/c2ccc(C#N)cc2)C=C1c1ccccc1` here?
Answer: 0.153

Question: With `O=C(O)c1cc2c(cc3ccc4cccc5ccc2c3c45)[nH]1` as the compound, how does the photoluminescence quantum yield (in CCOC(C)=O) read?
Answer: 0.82

Question: Which photoluminescence quantum yield (in Cc1ccccc1) does the source give for `CCCCCCN(CCCCCC)c1ccc(C#Cc2ccc(-c3ccc(C#Cc4ccc(N(CCCCCC)CCCCCC)cc4)cc3)cc2)cc1` here?
Answer: 0.87

Question: Which photoluminescence quantum yield (in CC#N) does the source give for `COc1cc(C#Cc2ccccc2)c(C#Cc2ccccc2)cc1OC` here?
Answer: 0.81

Question: Which photoluminescence quantum yield (in O) does the source give for `Cn1ccc(-n2cncn2)nc1=O` here?
Answer: 0.114

Question: With `CN(C)c1ccc(C2=[N+]3C(=Nc4c(-c5ccc(O)cc5)cc(-c5ccc(N(C)C)cc5)n4[B-]3(F)F)C(c3ccc(O)cc3)=C2)cc1` as the compound, how does the photoluminescence quantum yield (in C1CCOC1) read?
Answer: 0.04

Question: And the photoluminescence quantum yield (in Cc1ccccc1)?
Answer: 0.1

Question: With `c1ccc(-c2c3ccccc3c(-c3ccc4ccccc4c3)c3ccccc23)nc1` as the compound, how does the photoluminescence quantum yield (in ClCCl) read?
Answer: 0.75

Question: With `O=S(=O)(c1ccc(N(c2ccccc2)c2ccccc2)cc1)c1ccc(S(=O)(=O)c2ccc(N(c3ccccc3)c3ccccc3)cc2)cc1` as the compound, how does the photoluminescence quantum yield (in Cc1ccccc1) read?
Answer: 0.64

Question: Which photoluminescence quantum yield (in CCCCCC) does the source give for `CC(C)[Si](C#Cc1ccc(C#C[Si](C(C)C)(C(C)C)C(C)C)c2nc3c(nc12)Cc1ccccc1-3)(C(C)C)C(C)C` here?
Answer: 0.04

Question: For `Cc1cc2ccccc2c2c1c1ccccc1n2-c1ncccn1`, which photoluminescence quantum yield (in ClCCl) is on record?
Answer: 0

Question: For `c1ccc(-n2c(-c3ccc(N(c4ccc(-c5ccc(N(c6ccc(-c7nc8c9ccccc9c9ccccc9c8n7-c7ccccc7)cc6)c6ccc(-c7nc8c9ccccc9c9ccccc9c8n7-c7ccccc7)cc6)cc5)cc4)c4ccc(-c5nc6c7ccccc7c7ccccc7c6n5-c5ccccc5)cc4)cc3)nc3c4ccccc4c4ccccc4c32)cc1`, which photoluminescence quantum yield (in ClCCl) is on record?
Answer: 0.206

Question: With `CCN(CC)c1ccc(-c2c3c(n4ccc(C(C)=O)cc24)C(=O)N(CCCNC(=O)OC(C)(C)C)C3)cc1` as the compound, how does the photoluminescence quantum yield (in CO) read?
Answer: 0

Question: Which results are given for `CCCN1/C(=C\c2c(-c3ccc(N(C)C)cc3)c(=O)c2=O)C=Cc2ccccc21`?
Answer: photoluminescence quantum yield (in C1CCCCC1): 0.0262; photoluminescence quantum yield (in Cc1ccccc1): 0.0201; photoluminescence quantum yield (in ClCCl): 0.001

Question: For `COc1ccc(C2=C(c3ccc(-c4ccccc4)cc3)C(c3ccccc3)=[N+]3C2=Nc2c(-c4ccc(OC)cc4)c(-c4ccc(-c5ccccc5)cc4)c(-c4ccccc4)n2[B-]3(F)F)cc1`, which photoluminescence quantum yield (in Cc1ccccc1) is on record?
Answer: 0.01

Question: For `CCOC(=O)c1c2c3c(ccc(OC)c3c3cc4c(cc13)[Si](C)(C)O[Si]4(C)C)N(C)C2=O`, which photoluminescence quantum yield (in CC#N) is on record?
Answer: 0.46

Question: With `F[B-]1(F)n2c(Cl)c(Cl)c(Br)c2C(Cl)=C2C(Br)=C(Cl)C(Cl)=[N+]21` as the compound, how does the photoluminescence quantum yield (in ClCCl) read?
Answer: 0.18

Question: For `CO[B-]1(OC)n2c(C)cc(C)c2C(c2ccc(I)cc2)=C2C(C)=CC(C)=[N+]21`, which photoluminescence quantum yield (in ClC(Cl)Cl) is on record?
Answer: 0.52

Question: With `c1cc2ccc1-c1ccc(cc1)-c1ccc(s1)-c1ccc(cc1)-c1ccc(cc1)-c1ccc(s1)-c1ccc(cc1)-c1ccc(cc1)-c1ccc(s1)-c1ccc(cc1)-c1ccc(cc1)-c1ccc-2s1` as the compound, how does the photoluminescence quantum yield (in C1CCOC1) read?
Answer: 0.37

Question: Which photoluminescence quantum yield (in C1CCCCC1) does the source give for `CN(C)C(=O)c1ccc(-c2nc3ccc(N(C)C)cc3s2)cc1` here?
Answer: 0.84

Question: What about the photoluminescence quantum yield (in CC#N) of the same compound?
Answer: 0.85

Question: What about the photoluminescence quantum yield (in CC(C)O) of the same compound?
Answer: 0.81

Question: What about the photoluminescence quantum yield (in CO) of the same compound?
Answer: 0.92

Question: What about the photoluminescence quantum yield (in CS(C)=O) of the same compound?
Answer: 0.9

Question: And the photoluminescence quantum yield (in ClC(Cl)Cl)?
Answer: 0.89

Question: And the photoluminescence quantum yield (in c1ccccc1)?
Answer: 0.98

Question: For `CC(=O)c1ccc(/C=C/C=C/C2=NC3C(=O)NC(N)=NC3N2[C@H]2C[C@H](O)[C@@H](CO)O2)cc1` (some centres undefined), which photoluminescence quantum yield (in C1COCCO1) is on record?
Answer: 0.59

Question: And the photoluminescence quantum yield (in CC#N)?
Answer: 0.57

Question: And the photoluminescence quantum yield (in CO)?
Answer: 0.015

Question: For `N#CC(/N=C/c1c(O)ccc2ccccc12)=C(C#N)/N=C/c1c(O)ccc2ccccc12`, which photoluminescence quantum yield (in CC#N) is on record?
Answer: 0.37

Question: Which photoluminescence quantum yield (in ClC(Cl)Cl) does the source give for `COc1ccc(-c2nc(-c3ccccc3)c(N(c3ccccc3)c3ccccc3)s2)cc1` here?
Answer: 0.16

Question: Which photoluminescence quantum yield (in ClC(Cl)Cl) does the source give for `C[Si](C)(C)C#C[Si](c1c2ccccc2cc2ccccc12)(c1c2ccccc2cc2ccccc12)c1c2ccccc2cc2ccccc12` here?
Answer: 0.04

Question: For `Cc1ccc2[nH]c(-c3ccc(-c4ccc(-c5ccc(-c6nc7cc(C)ccc7[nH]6)cc5)c(F)c4)cc3)nc2c1`, which photoluminescence quantum yield (in CN(C)C=O) is on record?
Answer: 0.98

Question: Which photoluminescence quantum yield (in ClCCl) does the source give for `CN(C)c1cccc(/C=C/c2ncc(-c3ccc(OCc4ccccc4)c(OCc4ccccc4)c3)o2)c1` here?
Answer: 0.37
